For data set [1] the following is noted: subchronic; duration: 56 days.
For another data set, the system named is Brassica rapa. The settings on record: acute; duration: 21 days; seedling emergence.
Another data set relates to Daphnia magna. The settings on record: chronic/long-term; duration: 21 days.
The subject of a further data set is Lepomis macrochirus. To be noted: acute; duration: 96 hours; mortality.
The subject of a further data set is Canidae. The settings on record: oral, Dog Other, neurology.
The test system of another data set is Apis mellifera. To be noted: acute, mortality.
The next data set concerns Colinus virginianus. The settings on record: short-term; oral; diet; reproduction.
For another data set, the system named is Rattus norvegicus. To be noted: for LD50: acute.
The next data set concerns Pimephales promelas. The settings on record: chronic/long-term; duration: 32 days.
The test system of the next data set is Aphidius rhopalosiphi. Description: LR50; higher = less toxic. The settings on record: not reported; mortality.
The mark [2] stands for this setting: short-term, oral, feed, mortality.

A word on the NOAEL: it is the highest tested level that showed no adverse finding.

Bounds are passed on as bounds.

For `CNC(=O)Oc1cccc(N=CN(C)C)c1.Cl` [Formetanate hydrochloride], the NOAEC in data set [1] worked out at 0.703 mg/L. Also, the NOEC in the data set with Brassica rapa was greater than 500 g/ha; in the data set on Daphnia magna it was 0.0011 mg/L; with Tagia sp. (chronic/long-term) it was 1.8 mg/kg; with Anas platyrhynchos (reproductive), 15.6 mg/kg-day; with Anas platyrhynchos (setting [2]), 22.7 mg/kg-day; with Colinus virginianus, 15.6 mg/kg-day. Further, the NOEC in the data set with Pimephales promelas was determined as 0.48 mg/L. The LC50 turned out to be 1050 mg/kg with Tagia sp. (acute, duration: 14 days, mortality); 2.76 µg/mL with Lepomis macrochirus; 116 mg/kg-day in the data set with Anas platyrhynchos (setting [2]). Also, the NOAEL with Canidae (chronic, duration: 1 years) is 0.4 mg/kg-day; in the data set with Canidae (short-term, duration: 29 days), 0.4 mg/kg-day; in the data set with Rattus norvegicus (short-term, duration: 28 days, oral, gavage, F, clinical chemistry) it was 0.5 mg/kg-day. Moreover, the LD50 stood at 11.5 mg/kg in the data set on Anas platyrhynchos (acute, oral, unspecified, mortality); 1.02 µg/piece in the data set on Apis mellifera (dermal); 0.16 µg/piece in the data set with Apis mellifera (duration: 48 hours, oral, unspecified); 14.8 mg/kg in the data set on Rattus norvegicus (oral, F, mortality); 21 mg/kg with Rattus norvegicus (oral, M/F, mortality). For the same compound, the NOEL in the data set with Rattus norvegicus (reproduction developmental, mortality) was determined as 22.4 mg/kg-day. The compound also yielded an LR50 with Aphidius rhopalosiphi of 0.21 g/ha.

Source of the values: EPA's ToxValDB 9.5 (doi:10.2903/j.efsa.2006.69r).
